Results from PubChem BioAssay (NCI).
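Tested at 5 concentrations; 48 h exposure; 96-well plates; endpoints linearly interpolated, else capped at highest concentration. TGI marks complete inhibition of growth.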

Columns and labels:
Assay in all cases: NCI tumour cell line growth inhibition, 48 h
786-0 renal = system: 786-0 renal
A498 renal = system: A498 renal
A549 NSCLC = system: A549 NSCLC
ACHN renal = system: ACHN renal
CAKI-1 renal = system: CAKI-1 renal
COLO 205 colon = system: COLO 205 colon
DU-145 prostate = system: DU-145 prostate
EKVX NSCLC = system: EKVX NSCLC
HCC-2998 colon = system: HCC-2998 colon
HCT-116 colon = system: HCT-116 colon
HCT-15 colon = system: HCT-15 colon
HOP-62 NSCLC = system: HOP-62 NSCLC
HOP-92 NSCLC = system: HOP-92 NSCLC
HS 578T breast = system: HS 578T breast
HT29 colon = system: HT29 colon
IGROV1 ovarian = system: IGROV1 ovarian
K-562 leukemia = system: K-562 leukemia
KM12 colon = system: KM12 colon
LOX IMVI melanoma = system: LOX IMVI melanoma
M14 melanoma = system: M14 melanoma
MALME-3M melanoma = system: MALME-3M melanoma
MCF7 breast = system: MCF7 breast
MDA-N = system: MDA-N
MOLT-4 leukemia = system: MOLT-4 leukemia
NCI-H226 lung = system: NCI-H226 lung
NCI-H23 lung = system: NCI-H23 lung
NCI-H460 lung = system: NCI-H460 lung
NCI-H522 lung = system: NCI-H522 lung
NCI/ADR-RES ovarian = system: NCI/ADR-RES ovarian
OVCAR-5 ovarian = system: OVCAR-5 ovarian
OVCAR-8 ovarian = system: OVCAR-8 ovarian
PC-3 prostate = system: PC-3 prostate
RPMI-8226 leukemia = system: RPMI-8226 leukemia
RXF 393 renal = system: RXF 393 renal
SF-268 CNS = system: SF-268 CNS
SF-295 CNS = system: SF-295 CNS
SK-MEL-28 melanoma = system: SK-MEL-28 melanoma
SK-MEL-5 melanoma = system: SK-MEL-5 melanoma
SK-OV-3 ovarian = system: SK-OV-3 ovarian
SN12C renal = system: SN12C renal
SNB-19 CNS = system: SNB-19 CNS
SR leukemia = system: SR leukemia
SW-620 colon = system: SW-620 colon
T-47D breast = system: T-47D breast
TK-10 renal = system: TK-10 renal
U251 CNS = system: U251 CNS
UACC-257 melanoma = system: UACC-257 melanoma
UACC-62 melanoma = system: UACC-62 melanoma
UO-31 renal = system: UO-31 renal
CCRF-CEM leukemia = system: CCRF-CEM leukemia
MDA-MB-231 breast = system: MDA-MB-231 breast
MDA-MB-435 = system: MDA-MB-435
OVCAR-3 ovarian = system: OVCAR-3 ovarian
OVCAR-4 ovarian = system: OVCAR-4 ovarian
SF-539 CNS = system: SF-539 CNS
SK-MEL-2 melanoma = system: SK-MEL-2 melanoma
HL-60(TB) leukemia = system: HL-60(TB) leukemia
SNB-75 CNS = system: SNB-75 CNS

CC(=O)Oc1cc2c[n+](C)c3c4cc(OC(C)=O)c(OC(C)=O)cc4ccc3c2cc1OC(C)=O
TGI (786-0 renal): > 100 µM | TGI (A498 renal): > 65.3 µM | TGI (A549 NSCLC): > 100 µM | TGI (ACHN renal): > 100 µM | TGI (CAKI-1 renal): > 100 µM | TGI (COLO 205 colon): > 100 µM | TGI (DU-145 prostate): > 100 µM | TGI (EKVX NSCLC): 73.4 µM | TGI (HCC-2998 colon): > 100 µM | TGI (HCT-116 colon): > 32.5 µM | TGI (HCT-15 colon): > 100 µM | TGI (HOP-62 NSCLC): > 100 µM | TGI (HOP-92 NSCLC): > 100 µM | TGI (HS 578T breast): > 100 µM | TGI (HT29 colon): 26.2 µM | TGI (IGROV1 ovarian): > 100 µM | TGI (K-562 leukemia): > 100 µM | TGI (KM12 colon): > 100 µM | TGI (LOX IMVI melanoma): > 100 µM | TGI (M14 melanoma): > 48.4 µM | TGI (MALME-3M melanoma): > 100 µM | TGI (MCF7 breast): > 100 µM | TGI (MDA-N): > 100 µM | TGI (MOLT-4 leukemia): > 100 µM | TGI (NCI-H226 lung): > 100 µM | TGI (NCI-H23 lung): > 100 µM | TGI (NCI-H460 lung): > 100 µM | TGI (NCI-H522 lung): > 100 µM | TGI (NCI/ADR-RES ovarian): > 100 µM | TGI (OVCAR-5 ovarian): > 50.1 µM | TGI (OVCAR-8 ovarian): > 100 µM | TGI (PC-3 prostate): > 100 µM | TGI (RPMI-8226 leukemia): > 100 µM | TGI (RXF 393 renal): 11 µM | TGI (SF-268 CNS): > 100 µM | TGI (SF-295 CNS): > 57.8 µM | TGI (SK-MEL-28 melanoma): > 100 µM | TGI (SK-MEL-5 melanoma): > 61.4 µM | TGI (SK-OV-3 ovarian): > 100 µM | TGI (SN12C renal): > 100 µM | TGI (SNB-19 CNS): > 100 µM | TGI (SR leukemia): > 100 µM | TGI (SW-620 colon): > 100 µM | TGI (T-47D breast): > 100 µM | TGI (TK-10 renal): > 100 µM | TGI (U251 CNS): > 100 µM | TGI (UACC-257 melanoma): > 100 µM | TGI (UACC-62 melanoma): > 100 µM | TGI (UO-31 renal): 9.46 µM

COC(=O)CCCc1ccc2c(c1)CC1(Cc3ccccc3C1)C2
TGI (786-0 renal): > 100 µM | TGI (A498 renal): > 100 µM | TGI (A549 NSCLC): > 100 µM | TGI (ACHN renal): > 100 µM | TGI (CCRF-CEM leukemia): 71.6 µM | TGI (COLO 205 colon): 62.5 µM | TGI (EKVX NSCLC): > 100 µM | TGI (HCC-2998 colon): > 100 µM | TGI (HCT-116 colon): 78.6 µM | TGI (HCT-15 colon): 97.3 µM | TGI (HOP-62 NSCLC): > 100 µM | TGI (HOP-92 NSCLC): > 100 µM | TGI (HS 578T breast): > 100 µM | TGI (HT29 colon): > 100 µM | TGI (IGROV1 ovarian): > 100 µM | TGI (KM12 colon): > 100 µM | TGI (LOX IMVI melanoma): > 100 µM | TGI (M14 melanoma): > 100 µM | TGI (MALME-3M melanoma): > 100 µM | TGI (MCF7 breast): > 100 µM | TGI (MDA-MB-231 breast): > 100 µM | TGI (MDA-MB-435): 61.1 µM | TGI (MDA-N): 53.6 µM | TGI (MOLT-4 leukemia): 15.5 µM | TGI (NCI-H226 lung): > 100 µM | TGI (NCI-H23 lung): > 100 µM | TGI (NCI-H522 lung): > 100 µM | TGI (NCI/ADR-RES ovarian): > 100 µM | TGI (OVCAR-3 ovarian): > 100 µM | TGI (OVCAR-4 ovarian): > 100 µM | TGI (OVCAR-5 ovarian): > 100 µM | TGI (OVCAR-8 ovarian): > 100 µM | TGI (PC-3 prostate): > 100 µM | TGI (RPMI-8226 leukemia): 85.5 µM | TGI (RXF 393 renal): > 100 µM | TGI (SF-295 CNS): > 100 µM | TGI (SF-539 CNS): > 100 µM | TGI (SK-MEL-2 melanoma): 56.1 µM | TGI (SK-MEL-5 melanoma): 59.7 µM | TGI (SK-OV-3 ovarian): > 100 µM | TGI (SN12C renal): > 100 µM | TGI (T-47D breast): > 100 µM | TGI (TK-10 renal): > 100 µM | TGI (U251 CNS): > 100 µM | TGI (UACC-257 melanoma): > 100 µM | TGI (UACC-62 melanoma): > 100 µM | TGI (UO-31 renal): > 100 µM

COC(=O)[C@@H](NC1(c2ccccc2)c2ccccc2-c2ccccc21)[C@H](OC(=O)[C@H]1CCCN1S(=O)(=O)c1ccccc1)C(=O)OC
TGI (786-0 renal): > 100 µM | TGI (A498 renal): > 100 µM | TGI (A549 NSCLC): > 100 µM | TGI (ACHN renal): > 100 µM | TGI (CCRF-CEM leukemia): > 100 µM | TGI (COLO 205 colon): > 100 µM | TGI (DU-145 prostate): > 100 µM | TGI (EKVX NSCLC): > 100 µM | TGI (HCC-2998 colon): > 100 µM | TGI (HCT-116 colon): > 100 µM | TGI (HCT-15 colon): > 100 µM | TGI (HL-60(TB) leukemia): > 100 µM | TGI (HOP-62 NSCLC): > 100 µM | TGI (HOP-92 NSCLC): 84.1 µM | TGI (HT29 colon): > 100 µM | TGI (IGROV1 ovarian): > 100 µM | TGI (K-562 leukemia): > 100 µM | TGI (KM12 colon): > 100 µM | TGI (LOX IMVI melanoma): > 100 µM | TGI (M14 melanoma): > 100 µM | TGI (MALME-3M melanoma): > 100 µM | TGI (MCF7 breast): > 100 µM | TGI (MDA-MB-231 breast): > 100 µM | TGI (MDA-MB-435): > 100 µM | TGI (MDA-N): > 100 µM | TGI (MOLT-4 leukemia): > 100 µM | TGI (NCI-H226 lung): > 100 µM | TGI (NCI-H23 lung): > 100 µM | TGI (NCI-H460 lung): > 100 µM | TGI (NCI-H522 lung): > 100 µM | TGI (NCI/ADR-RES ovarian): > 100 µM | TGI (OVCAR-3 ovarian): > 100 µM | TGI (OVCAR-4 ovarian): > 100 µM | TGI (OVCAR-5 ovarian): > 100 µM | TGI (OVCAR-8 ovarian): > 100 µM | TGI (PC-3 prostate): > 100 µM | TGI (RXF 393 renal): > 100 µM | TGI (SF-268 CNS): > 100 µM | TGI (SF-295 CNS): > 100 µM | TGI (SF-539 CNS): > 100 µM | TGI (SK-MEL-2 melanoma): > 100 µM | TGI (SK-MEL-28 melanoma): > 100 µM | TGI (SK-MEL-5 melanoma): > 100 µM | TGI (SK-OV-3 ovarian): > 100 µM | TGI (SN12C renal): > 100 µM | TGI (SNB-19 CNS): > 100 µM | TGI (SNB-75 CNS): > 100 µM | TGI (SR leukemia): > 100 µM | TGI (SW-620 colon): > 100 µM | TGI (T-47D breast): > 100 µM | TGI (TK-10 renal): > 100 µM | TGI (U251 CNS): > 100 µM | TGI (UACC-257 melanoma): > 100 µM | TGI (UACC-62 melanoma): > 100 µM | TGI (UO-31 renal): > 100 µM
